Test systems include HCC 2998; UO-31; RXF 393; TK-10; M14; SNB-75; MDA-N; OVCAR-3; MCF7; SF-268; NCI-H522; IGROV-1; SF-295; OVCAR-8; SNB-19; K562; SK-MEL-2; HCT-15; CAKI-1; MOLT-4.
Assay in all cases: NCI tumour cell line growth inhibition, 48 h

Structures are written as SMILES.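 A five-concentration, 48-hour dose response in 96-well plates underlies each endpoint, interpolated linearly between surrounding concentrations. GI50: concentration for 50% inhibition of growth.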 The source made the active and inactive calls. Rule as the data show it: active = GI50 up to about 1.1 µM and inactive = higher. Some results are limits rather than exact numbers.

Turning to `CC(=O)OCC1OC(N2C(c3ccccc3)=CC(c3ccccc3)C(C#N)=C2S)C(OC(C)=O)C(OC(C)=O)C1OC(C)=O` (stereo not given), the GI50 with HCC 2998 was 25.4 µM (inactive); in the assay on UO-31, 19.2 µM (inactive); in the assay on RXF 393, 3.17 µM (inactive); in the assay with TK-10, 22.2 µM (inactive); in the assay on M14, 12.6 µM (inactive); in the assay with SNB-75, 10.4 µM (inactive). The GI50 was 2.02 µM (inactive) with MDA-N; 16.9 µM (inactive) in the assay on OVCAR-3; 19.4 µM (inactive) with MCF7; 5.33 µM (inactive) in the assay on SF-268; 7.89 µM (inactive) with NCI-H522; 18.2 µM (inactive) with IGROV-1. The GI50 in the assay with SF-295 was 2.04 µM (inactive); in the assay with OVCAR-8, 3.88 µM (inactive); in the assay on SNB-19 it was 5.96 µM (inactive); in the assay with K562 it was 3.76 µM (inactive); in the assay on SK-MEL-2 it was 2.27 µM (inactive); with HCT-15 it was 48.5 µM. For the same molecule, the values for the GI50 in the assay on CAKI-1 and in the assay on MOLT-4 were 3.08 µM (inactive) and 48.6 µM (inactive), respectively.

With `Brc1ccccc1/C=N\C12CC3CC(CC(C3)C1)C2`, the GI50 in the assay on HCC 2998 was > 100 µM (inactive); in the assay with UO-31 it was > 100 µM (inactive); in the assay with RXF 393, 97.9 µM (inactive); in the assay on TK-10, > 100 µM (inactive); with M14, 28.1 µM (inactive); in the assay with SNB-75, 38.2 µM (inactive). Moreover, the GI50 in the assay with MDA-N is 3.38 µM (inactive); in the assay with OVCAR-3 it was 23.8 µM (inactive); with MCF7, 7.24 µM (inactive); in the assay with SF-268, 99.1 µM (inactive); in the assay on NCI-H522, > 100 µM (inactive); in the assay with IGROV-1 it was > 100 µM (inactive). Further, the GI50 in the assay on SF-295 is 63.8 µM (inactive); in the assay on OVCAR-8, > 100 µM (inactive); in the assay on SNB-19, > 100 µM (inactive); with K562, 1.02 µM (active); in the assay with SK-MEL-2, > 81.3 µM (inactive); in the assay on HCT-15, 1.99 µM. The GI50 is 24.8 µM (inactive) in the assay with CAKI-1 and 4.75 µM (inactive) with MOLT-4.

`CS(=O)(=O)CS(=O)(=O)OCCCl`: the GI50 in the assay with HCC 2998 is 301 µM (inactive); in the assay with UO-31, 348 µM (inactive); with RXF 393, 163 µM (inactive); in the assay on TK-10, 465 µM (inactive); with M14 it was 191 µM (inactive); in the assay with SNB-75, 46.8 µM (inactive). Also, the GI50 was 107 µM (inactive) with MDA-N; 264 µM (inactive) in the assay with OVCAR-3; 229 µM (inactive) with MCF7; 47.9 µM (inactive) with SF-268; 206 µM (inactive) with NCI-H522; 252 µM (inactive) in the assay on IGROV-1. The GI50 in the assay with SF-295 was 60.8 µM (inactive); in the assay with OVCAR-8, 191 µM (inactive); in the assay with SNB-19 it was 96.4 µM (inactive); in the assay on K562 it was 216 µM (inactive); in the assay on SK-MEL-2, 304 µM (inactive); in the assay with HCT-15, 209 µM. Besides, the GI50 with CAKI-1 is 207 µM (inactive); in the assay on MOLT-4 it was 96.2 µM (inactive).

On to `CSC1=NC(=O)CCN1C1OCC(OC(C)=O)C(OC(C)=O)C1OC(C)=O` (stereo not given), for which the GI50 was 21.8 µM (inactive) with HCC 2998; 19.3 µM (inactive) in the assay on UO-31; 15.8 µM (inactive) with RXF 393; 17.1 µM (inactive) in the assay on TK-10; > 10 µM (inactive) in the assay on M14; 14.7 µM (inactive) in the assay on SNB-75. Further, the GI50 was > 10 µM (inactive) with MDA-N; 12.6 µM (inactive) with OVCAR-3; 63.8 µM (inactive) with MCF7; 16.9 µM (inactive) in the assay on SF-268; 18.2 µM (inactive) in the assay on NCI-H522; 15.1 µM (inactive) in the assay on IGROV-1. Also, the GI50 is 20.1 µM (inactive) with SF-295; 15.8 µM (inactive) in the assay on OVCAR-8; 16.3 µM (inactive) in the assay on SNB-19; 3.65 µM (inactive) with K562; 13.6 µM (inactive) with SK-MEL-2; 18.5 µM in the assay on HCT-15. For the same molecule, the GI50 in the assay with CAKI-1 was 24.7 µM (inactive); with MOLT-4, 4.66 µM (inactive).

With `CCOP(=O)(OCC)/C(C#N)=C/c1[nH]cnc1C`, the GI50 in the assay on HCC 2998, in the assay on UO-31, with RXF 393, in the assay on TK-10, with M14 and with SNB-75 was > 100 µM (inactive) throughout. The GI50 in the assay on MDA-N, in the assay on OVCAR-3, in the assay with MCF7, in the assay on SF-268, with NCI-H522 and with IGROV-1 was > 100 µM (inactive) in each case. The GI50 in the assay on SF-295 was > 100 µM (inactive); in the assay on OVCAR-8 it was > 100 µM (inactive); with SNB-19, > 100 µM (inactive); in the assay on K562, > 100 µM (inactive); in the assay on SK-MEL-2 it was > 100 µM (inactive); in the assay on HCT-15, above 100 µM. Further, the GI50 with CAKI-1 and with MOLT-4 was > 100 µM (inactive) throughout.

As for `CCOC1OC(=O)c2cc3ccc4c(c3c(-c3ccc5c(c3)OCO5)c21)OCO4` (stereo not given), the GI50 in the assay with HCC 2998 was 2.26 µM (inactive); in the assay on UO-31 it was 22 µM (inactive); in the assay with RXF 393 it was 5.79 µM (inactive); in the assay with TK-10 it was 4.75 µM (inactive); in the assay on M14 it was 3.4 µM (inactive); in the assay with SNB-75, 1.08 µM (active). For the same molecule, the GI50 in the assay on MDA-N was 1.9 µM (inactive); in the assay on OVCAR-3, 0.417 µM (active); in the assay on MCF7, 9.57 µM (inactive); with SF-268, 5.46 µM (inactive); in the assay with NCI-H522, 0.687 µM (active); in the assay on IGROV-1, 4.6 µM (inactive). For the same molecule, the GI50 in the assay with SF-295 is 2.27 µM (inactive); with OVCAR-8, 35.7 µM (inactive); in the assay with SNB-19, 8.95 µM (inactive); in the assay on K562, 7.6 µM (inactive); in the assay with SK-MEL-2, 12.8 µM (inactive); in the assay on HCT-15, 4.85 µM. In addition, the GI50 in the assay with CAKI-1 is 4.48 µM (inactive); in the assay on MOLT-4 it was 6.05 µM (inactive).

These data come from ChEMBL document CHEMBL1201862, “PubChem BioAssay data set” (2004).
